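These data come from cells grown in 96-well plates and exposed to compound for 48 hours at five concentrations. GI50 is the concentration that inhibits growth by half. Definition used: TGI = concentration required for complete inhibition of growth.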
What was measured:
Test in all cases: NCI tumour cell line growth inhibition, 48 h
MDA-MB-435 = system: MDA-MB-435
HT29 colon = system: HT29 colon
SR leukemia = system: SR leukemia
HS 578T breast = system: HS 578T breast
MALME-3M melanoma = system: MALME-3M melanoma
COLO 205 colon = system: COLO 205 colon
NCI-H460 lung = system: NCI-H460 lung
CAKI-1 renal = system: CAKI-1 renal
SK-MEL-28 melanoma = system: SK-MEL-28 melanoma
SNB-75 CNS = system: SNB-75 CNS
RPMI-8226 leukemia = system: RPMI-8226 leukemia
OVCAR-4 ovarian = system: OVCAR-4 ovarian
SK-OV-3 ovarian = system: SK-OV-3 ovarian
U251 CNS = system: U251 CNS
NCI-H23 lung = system: NCI-H23 lung
TK-10 renal = system: TK-10 renal
UACC-62 melanoma = system: UACC-62 melanoma
UACC-257 melanoma = system: UACC-257 melanoma
MOLT-4 leukemia = system: MOLT-4 leukemia
BT-549 breast = system: BT-549 breast
M14 melanoma = system: M14 melanoma
EKVX NSCLC = system: EKVX NSCLC
ACHN renal = system: ACHN renal
PC-3 prostate = system: PC-3 prostate
CCRF-CEM leukemia = system: CCRF-CEM leukemia
HCC-2998 colon = system: HCC-2998 colon
SW-620 colon = system: SW-620 colon
HCT-116 colon = system: HCT-116 colon
OVCAR-8 ovarian = system: OVCAR-8 ovarian
HL-60(TB) leukemia = system: HL-60(TB) leukemia
NCI/ADR-RES ovarian = system: NCI/ADR-RES ovarian
NCI-H226 lung = system: NCI-H226 lung
A498 renal = system: A498 renal
SF-295 CNS = system: SF-295 CNS
RXF 393 renal = system: RXF 393 renal
786-0 renal = system: 786-0 renal
OVCAR-3 ovarian = system: OVCAR-3 ovarian
IGROV1 ovarian = system: IGROV1 ovarian
A549 NSCLC = system: A549 NSCLC
NCI-H522 lung = system: NCI-H522 lung
HOP-92 NSCLC = system: HOP-92 NSCLC
HCT-15 colon = system: HCT-15 colon
KM12 colon = system: KM12 colon
HOP-62 NSCLC = system: HOP-62 NSCLC
MCF7 breast = system: MCF7 breast
SF-268 CNS = system: SF-268 CNS
MDA-MB-231 breast = system: MDA-MB-231 breast
DU-145 prostate = system: DU-145 prostate
SNB-19 CNS = system: SNB-19 CNS
K-562 leukemia = system: K-562 leukemia
T-47D breast = system: T-47D breast
OVCAR-5 ovarian = system: OVCAR-5 ovarian
SF-539 CNS = system: SF-539 CNS
SK-MEL-5 melanoma = system: SK-MEL-5 melanoma
LOX IMVI melanoma = system: LOX IMVI melanoma
SN12C renal = system: SN12C renal
UO-31 renal = system: UO-31 renal

## CC(C)(O)CNc1nc(Nc2ccnc(C(F)(F)F)c2)nc(-c2cccc(C(F)(F)F)n2)n1
MDA-MB-435
  GI50: 15.8 µM
  TGI: 39.9 µM
HT29 colon
  GI50: 17.1 µM
  TGI: 41.2 µM
SR leukemia
  GI50: 18.3 µM
  TGI: 90.9 µM
HS 578T breast
  GI50: 27.8 µM
  TGI: 75.9 µM
MALME-3M melanoma
  GI50: 21.1 µM
  TGI: 43.3 µM
COLO 205 colon
  GI50: 18.4 µM
  TGI: 38.7 µM
NCI-H460 lung
  GI50: 23.8 µM
  TGI: 60.8 µM
CAKI-1 renal
  GI50: 29.6 µM
  TGI: > 100 µM
SK-MEL-28 melanoma
  GI50: 17.8 µM
  TGI: 36.2 µM
SNB-75 CNS
  GI50: 15.9 µM
  TGI: 42.7 µM
RPMI-8226 leukemia
  GI50: 18.5 µM
  TGI: 56.1 µM
OVCAR-4 ovarian
  GI50: 23.9 µM
  TGI: 86.9 µM
SK-OV-3 ovarian
  GI50: 26.6 µM
  TGI: 68.3 µM
U251 CNS
  GI50: 25.9 µM
  TGI: 78.2 µM
NCI-H23 lung
  GI50: 18.1 µM
  TGI: 42.8 µM
TK-10 renal
  GI50: 26.6 µM
  TGI: 82.4 µM
UACC-62 melanoma
  GI50: 16.4 µM
  TGI: 32.6 µM
UACC-257 melanoma
  GI50: 21.7 µM
  TGI: 43.6 µM
MOLT-4 leukemia
  GI50: 13.7 µM
  TGI: 41.8 µM
BT-549 breast
  GI50: 16.7 µM
  TGI: 39.7 µM
M14 melanoma
  GI50: 16.1 µM
  TGI: 34.6 µM
EKVX NSCLC
  GI50: 21.4 µM
  TGI: 64.1 µM
ACHN renal
  GI50: 23.5 µM
  TGI: 66.7 µM
PC-3 prostate
  GI50: 27.4 µM
  TGI: > 100 µM
CCRF-CEM leukemia
  GI50: 21.3 µM
  TGI: 73.9 µM
HCC-2998 colon
  GI50: 20.3 µM
  TGI: 43.7 µM
SW-620 colon
  GI50: 26.7 µM
  TGI: 86.5 µM
HCT-116 colon
  GI50: 17.6 µM
  TGI: 44.5 µM
OVCAR-8 ovarian
  GI50: 26.3 µM
  TGI: 84.8 µM
HL-60(TB) leukemia
  GI50: 21.1 µM
  TGI: 58.2 µM
NCI/ADR-RES ovarian
  GI50: 17.1 µM
  TGI: 53.8 µM
NCI-H226 lung
  GI50: 20.8 µM
  TGI: 58.2 µM
A498 renal
  GI50: 16.1 µM
  TGI: 37.2 µM
SF-295 CNS
  GI50: 17.1 µM
  TGI: 35.3 µM
RXF 393 renal
  GI50: 20.7 µM
  TGI: 48.4 µM
786-0 renal
  GI50: 18.6 µM
  TGI: 78.5 µM
OVCAR-3 ovarian
  GI50: 20.1 µM
  TGI: 52 µM
IGROV1 ovarian
  GI50: 28.6 µM
  TGI: 74.5 µM
A549 NSCLC
  GI50: 19.5 µM
  TGI: 39.4 µM
NCI-H522 lung
  GI50: 18.6 µM
  TGI: 49.3 µM
HOP-92 NSCLC
  GI50: 23.4 µM
  TGI: 74.2 µM
HCT-15 colon
  GI50: 19.7 µM
  TGI: 79.8 µM
KM12 colon
  GI50: 16.4 µM
  TGI: 43.7 µM
HOP-62 NSCLC
  GI50: 21.4 µM
  TGI: 52.8 µM
MCF7 breast
  GI50: 18.2 µM
  TGI: 42.5 µM
SF-268 CNS
  GI50: 23.1 µM
  TGI: 76.4 µM
MDA-MB-231 breast
  GI50: 19.1 µM
  TGI: 45.6 µM
DU-145 prostate
  GI50: 21.6 µM
  TGI: 67.8 µM
SNB-19 CNS
  GI50: 34.4 µM
  TGI: > 100 µM
K-562 leukemia
  GI50: 29.4 µM
  TGI: > 100 µM
T-47D breast
  GI50: 17.7 µM
  TGI: 56.7 µM
OVCAR-5 ovarian
  GI50: 22.5 µM
  TGI: 63 µM
SF-539 CNS
  GI50: 16.6 µM
  TGI: 42.7 µM
SK-MEL-5 melanoma
  GI50: 13.2 µM
  TGI: 26.3 µM
LOX IMVI melanoma
  GI50: 17.3 µM
  TGI: 32.6 µM
SN12C renal
  GI50: 19.1 µM
  TGI: 54.4 µM
UO-31 renal
  GI50: 19.9 µM
  TGI: 50.4 µM

Reference: PubChem BioAssay (NCI)
